In patent US8815857B2 (Boehringer Ingelheim International GmbH, priority 2011, dated 2014):
Values after ≈ are worked out from the molar mass of the structure shown.

How the values were obtained:
[1] = biological target: T1, human soluble guanylate cyclase alpha 1 and beta 1 subunits (sGC) stably expressed in Chinese hamster ovary cells (Homo sapiens, UniProt Q02108+Q02153); assay: sGC cellular activator assay: cGMP in CHO cells expressing human sGC, preincubated with ODQ; assay type: cell-based; details: 40 microM ODQ preincubation, 30 min at room temperature, presence or absence of 50% human serum not given, read-out: EC50 nM, Activity of Compounds in Cellular Assay
T1 construct: expressed in transfected cells; host or cells: Chinese hamster ovary cells, stably transfected
T1 sequence (Q02108 1-690 partner): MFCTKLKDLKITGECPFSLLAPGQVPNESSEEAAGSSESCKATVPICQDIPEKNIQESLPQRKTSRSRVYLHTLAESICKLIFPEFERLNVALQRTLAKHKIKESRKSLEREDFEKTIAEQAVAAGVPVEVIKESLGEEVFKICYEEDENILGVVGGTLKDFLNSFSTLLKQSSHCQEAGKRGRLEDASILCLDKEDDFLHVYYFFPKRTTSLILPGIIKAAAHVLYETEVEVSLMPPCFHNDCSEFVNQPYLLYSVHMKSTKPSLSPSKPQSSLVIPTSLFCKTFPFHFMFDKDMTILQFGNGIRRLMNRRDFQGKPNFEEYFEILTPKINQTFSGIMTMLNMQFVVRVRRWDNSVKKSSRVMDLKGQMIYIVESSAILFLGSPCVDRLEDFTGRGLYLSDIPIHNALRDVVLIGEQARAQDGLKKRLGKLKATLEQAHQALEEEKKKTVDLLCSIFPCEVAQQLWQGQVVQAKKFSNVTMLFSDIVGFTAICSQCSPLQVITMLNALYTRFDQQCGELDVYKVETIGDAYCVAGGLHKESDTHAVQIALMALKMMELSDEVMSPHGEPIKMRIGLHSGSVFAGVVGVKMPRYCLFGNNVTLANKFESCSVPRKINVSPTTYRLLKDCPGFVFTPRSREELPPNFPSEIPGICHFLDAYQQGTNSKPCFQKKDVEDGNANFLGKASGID
T1 sequence (Q02153 1-619): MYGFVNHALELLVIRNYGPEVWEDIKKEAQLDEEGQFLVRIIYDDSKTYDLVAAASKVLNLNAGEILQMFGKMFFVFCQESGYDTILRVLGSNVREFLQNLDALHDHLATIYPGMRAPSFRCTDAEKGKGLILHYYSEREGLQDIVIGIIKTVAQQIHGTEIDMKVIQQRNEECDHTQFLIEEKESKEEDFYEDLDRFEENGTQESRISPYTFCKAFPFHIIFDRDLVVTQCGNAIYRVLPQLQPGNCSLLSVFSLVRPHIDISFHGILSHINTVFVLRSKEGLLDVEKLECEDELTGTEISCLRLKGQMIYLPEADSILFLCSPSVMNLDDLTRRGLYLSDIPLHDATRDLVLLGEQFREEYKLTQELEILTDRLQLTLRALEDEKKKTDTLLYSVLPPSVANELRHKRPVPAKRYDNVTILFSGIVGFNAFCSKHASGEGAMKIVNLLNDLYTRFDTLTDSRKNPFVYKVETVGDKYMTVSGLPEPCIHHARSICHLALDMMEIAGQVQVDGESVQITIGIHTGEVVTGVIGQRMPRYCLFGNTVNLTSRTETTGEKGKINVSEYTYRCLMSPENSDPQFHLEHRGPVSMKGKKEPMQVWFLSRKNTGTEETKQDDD
Protocol: The sGC cellular activator assay is performed in the presence and absence of 50% human serum (HS) using Chinese hamster ovary cells that have been stably transfected to express the human soluble guanylate cyclase alpha 1 and beta 1 subunits (sGC). Cells are preincubated with 40 microM 1H-[1,2,4]oxadiazolo[4,3-a]quinoxalin-1-one (ODQ), an sGC inhibitor, for one hour in buffer containing 0.1% bovine serum albumin and 3-isobutyl-1-methylxanthine (IBMX). Concentration response curves are prepared for test compounds in DMSO. An intermediate dilution of the compounds is performed in either buffer containing IBMX or type AB HS containing IBMX. Diluted compounds are added to cells and they are incubated at room temperature for thirty minutes. cGMP is measured using a CisBio homogeneous time resolved fluorescence kit and the EC50 is calculated for each compound.

[2] = Assessment of solubility: HT solubility in pION buffer, UV spectrophotometry; details: kinetic from dmso stock
[3] = pH 6.8, aqueous buffer, Solubility (pH 6.8), pH 6.8
[4] = pION system solution buffer, pH 4.5, pH 4.5, aqueous buffer, Solubility (pH 4.5), pH 4.5 buffer, 16-19 h incubation, 1.0% DMSO
[5] = pION system solution buffer, pH 7.4, pH 7.4, aqueous buffer, Solubility (pH 7.4), pH 7.4 buffer, 16-19 h incubation, 1.0% DMSO

EC50 [1] [nM] | solubility [2, 3] [µg/mL] | solubility [2, 4] [µg/mL] | solubility [2, 5] [µg/mL] | SMILES
310 | 91 (≈ 158 µM) | 97 (≈ 168 µM) | > 59 | Cc1ccc(OCc2ccc(C(=O)N3CCCCC3)cc2C)c(-c2nc(N3C[C@H]4CC[C@@H](C3)[C@H]4C(=O)O)sc2F)c1 [Compound 202, 3-[5-fluoro-4-[5-methyl-2-[[2-methyl-4-(piperidine-1-carbonyl)phenyl]methoxy]phenyl]thiazol-2-yl]-3-azabicyclo[3.2.1]octane-8(syn)-carboxylic acid]
100 | 32 (≈ 53.1 µM) | 11 (≈ 18.2 µM) | – | COCC1CN(Cc2ccc(COc3ccc(C)cc3-c3csc(N4C[C@H]5CC[C@@H](C4)[C@H]5C(=O)O)n3)c(C#N)c2)CCO1 (stereo partly shown) [Compound 212]
390 | 0.17 (≈ 0.295 µM) | < 0.1 | – | Cc1ccc(OCc2ccc(C(=O)N3CCCCC3)cc2C)c(-c2csc(N3C[C@H]4CC[C@@H](C3)[C@@]4(O)C(=O)O)n2)c1 [Compound 216, 8-hydroxy-3-(4-{5-methyl-2-[2-methyl-4-(piperidine-1-carbonyl)-benzyloxy]-phenyl}-thiazol-2-yl)-3-aza-bicyclo[3.2.1]octane-8(syn)-carboxylic acid]
42 | 4.8 (≈ 8.99 µM) | 42 (≈ 78.7 µM) | 4 (≈ 7.49 µM) | Cc1ccc(OCc2ccc(CN3CCOCC3)cc2C)c(-c2csc(N3CC[C@]4(C(=O)O)C[C@@H]4C3)n2)c1 [Compound 220]
75 | 0.45 (≈ 0.779 µM) | < 0.1 | – | Cc1ccc(OCc2ccc(C(=O)N3CCCCC3)cc2C)c(-c2csc(N3C[C@H]4CC[C@@H](C3)[C@@]4(F)C(=O)O)n2)c1 [Compound 221, 8-fluoro-3-(4-{5-methyl-2-[2-methyl-4-(piperidine-1-carbonyl)-benzyloxy]-phenyl}-thiazol-2-yl)-3-aza-bicyclo[3.2.1]octane-8(syn)-carboxylic acid]
110 | 3.3 (≈ 5.67 µM) | < 0.1 | 30 (≈ 51.6 µM) | Cc1ccc(OCc2ccc(CN3CCS(=O)(=O)CC3)cc2C)c(-c2csc(N3CC[C@]4(C(=O)O)C[C@@H]4C3)n2)c1 [Compound 222]
5.2 | 2.5 (≈ 4.3 µM) | < 0.1 | – | Cc1ccc(OCc2ccc(CN3CCS(=O)(=O)CC3)cc2C)c(-c2csc(N3CC[C@@]4(C(=O)O)C[C@H]4C3)n2)c1 [Compound 223]
5.8 | 54 (≈ 98.6 µM) | < 0.1 | – | Cc1ccc(OCc2ccc(C(=O)N3CCOCC3)cc2C)c(-c2csc(N3CC[C@@]4(C(=O)O)C[C@H]4C3)n2)c1 [Compound 224]
7.3 | 0.3 (≈ 0.499 µM) | 4.6 (≈ 7.66 µM) | – | Cc1ccc(OCc2ccc(CN3CCN(C(=O)C4CC4)CC3)cc2C)c(-c2csc(N3CC[C@@]4(C(=O)O)C[C@H]4C3)n2)c1 [Compound 225]
13 | 15 (≈ 27.5 µM) | < 0.1 | – | Cc1ccc(OCc2ccc(C(=O)N3CCCCC3)cc2C)c(-c2csc(N3CC[C@@]4(C(=O)O)C[C@H]4C3)n2)c1 [Compound 226]
99 | 62 (≈ 105 µM) | 54 (≈ 91.7 µM) | – | Cc1ccc(OCc2ccc(CN3CCOC(CO)C3)cc2C#N)c(-c2csc(N3C[C@H]4CC[C@@H](C3)[C@H]4C(=O)O)n2)c1 (stereo partly shown) [Compound 227]
39 | 0.42 (≈ 0.683 µM) | 6.1 (≈ 9.92 µM) | – | Cc1ccc(OCc2ccc(CN3CCN(C(=O)C4CC4)CC3)cc2C)c(-c2csc(N3C[C@H]4CC[C@@H](C3)[C@H]4C(=O)O)n2)c1 [Compound 228]
76 | 21 (≈ 37.4 µM) | 0.4 (≈ 0.712 µM) | – | Cc1ccc(OCc2ccc(C(=O)N3CCCCC3)cc2C)c(-c2csc(N3CCCC(C)(C(=O)O)CC3)n2)c1 (stereo not shown) [Compound 229]
120 | 0.95 (≈ 1.59 µM) | < 0.1 | – | Cc1ccc(OCc2ccc(CN3CCS(=O)(=O)CC3)cc2C)c(-c2csc(N3CCCC(C)(C(=O)O)CC3)n2)c1 (stereo not shown) [Compound 230]
44 | 26 (≈ 45.6 µM) | 46 (≈ 80.6 µM) | > 54 | Cc1ccc(OCc2ccc(CN3C[C@@H]4C[C@H]3CO4)cc2C#N)c(-c2csc(N3C[C@H]4CC[C@@H](C3)[C@H]4C(=O)O)n2)c1 [Compound 232]
310 | 0.6 (≈ 1.09 µM) | 47 (≈ 85.5 µM) | – | Cc1ccc(OCc2ccc(CN3CCOCC3)cc2C)c(-c2csc(N3CCCC(C)(C(=O)O)CC3)n2)c1 (stereo not shown) [Compound 233]
39 | 5.2 (≈ 9.08 µM) | 4.9 (≈ 8.56 µM) | – | Cc1ccc(OCc2ccc(CN3CCOC(C)C3)cc2C#N)c(-c2csc(N3C[C@H]4CC[C@@H](C3)[C@H]4C(=O)O)n2)c1 (stereo partly shown) [Compound 238]
41 | 72 (≈ 134 µM) | 9.2 (≈ 17.2 µM) | – | Cc1ccc(OCc2ccc(C(=O)N3CCOCC3)cc2C)c(-c2csc(N3CC[C@@H](C(=O)O)[C@H]3C)n2)c1 [Compound 241]
90 | 37 (≈ 70.9 µM) | 53 (≈ 102 µM) | – | Cc1ccc(OCc2ccc(CN3CCOCC3)cc2C)c(-c2csc(N3CC[C@@H](C(=O)O)[C@H]3C)n2)c1 [Compound 242]
180 | 61 (≈ 115 µM) | 1.2 (≈ 2.26 µM) | – | Cc1ccc(OCc2ccc(C(=O)N3CCCCC3)cc2C)c(-c2csc(N3C[C@@H]4[C@H](C3)[C@@H]4C(=O)O)n2)c1 [Compound 243]
180 | 65 (≈ 114 µM) | 2.6 (≈ 4.58 µM) | – | Cc1ccc(OCc2ccc(CN3CCS(=O)(=O)CC3)cc2C)c(-c2csc(N3C[C@@H]4[C@H](C3)[C@@H]4C(=O)O)n2)c1 [Compound 244]
290 | 48 (≈ 84.2 µM) | 3.6 (≈ 6.32 µM) | – | Cc1ccc(OCc2ccc(CN3CCS(=O)(=O)CC3)cc2C)c(-c2csc(N3CC[C@@H](C(=O)O)[C@H]3C)n2)c1 [Compound 245]
340 | 54 (≈ 104 µM) | 62 (≈ 119 µM) | – | Cc1ccc(OCc2ccc(CN3CCOCC3)cc2C)c(-c2csc(N3C[C@@H]4[C@H](C3)[C@@H]4C(=O)O)n2)c1 [Compound 246]
720 | 70 (≈ 131 µM) | 46 (≈ 86.2 µM) | – | Cc1ccc(OCc2ccc(C(=O)N3CCOCC3)cc2C)c(-c2csc(N3C[C@@H]4[C@H](C3)[C@@H]4C(=O)O)n2)c1 [Compound 247]
110 | 47 (≈ 88.4 µM) | < 0.1 | – | Cc1ccc(OCc2ccc(C(=O)N3CCCCC3)cc2C)c(-c2csc(N3CC4(CC4C(=O)O)C3)n2)c1 (stereo not shown) [Compound 248]
140 | 51 (≈ 88.7 µM) | 45 (≈ 78.3 µM) | – | Cc1ccc(OCc2ccc(CN3CCN(C(=O)C4CC4)CC3)cc2C)c(-c2csc(N3CC(CC(=O)O)C3)n2)c1 [Compound 249]
140 | 13 (≈ 22.1 µM) | < 0.1 | – | CC[C@]1(C(=O)O)[C@@H]2CC[C@H]1CN(c1nc(-c3cc(C)ccc3OCc3ccc(C(=O)N4CCCCC4)cc3C)cs1)C2 [Compound 250, 8-ethyl-3-(4-{5-methyl-2-[2-methyl-4-(piperidine-1-carbonyl)-benzyloxy]-phenyl}-thiazole-2-yl)-3-aza-bicyclo[3.2.1]octane-8(syn)-carboxylic acid]
240 | 56 (≈ 108 µM) | 0.15 (≈ 0.289 µM) | – | Cc1ccc(OCc2ccc(C(=O)N3CCCCC3)cc2C)c(-c2csc(N3CC(CC(=O)O)C3)n2)c1 [Compound 251]
